Assay results published in the NIST ThermoML archive (doi:10.1016/j.jct.2006.05.009).
Numbers after ± are expanded uncertainties.

What was measured:
[1] = Molar enthalpy of transition or fusion
[2] = molar heat capacity at constant pressure; conditions: 101.33 kPa, Crystal 2

Cn1c(=O)c2c(ncn2C)n(C)c1=O [caffeine]
Conditions | Triple point temperature [K]
Crystal 1 | 509 ± 0.8
Crystal 2 | 413.39 ± 0.77

Conditions | Molar enthalpy of transition or fusion [kcal/mol] | molar heat capacity at constant pressure [J/K/mol]
[1], Crystal 1 | 4.75 ± 0.22 | –
[1], Crystal 2 | 0.82 ± 0.139 | –
[2], 80.83 K | – | 98.31 ± 1.8
[2], 84.15 K | – | 101.95 ± 1.8
[2], 87.22 K | – | 104.62 ± 1.9
[2], 90.15 K | – | 106.27 ± 1.9
[2], 93.05 K | – | 109.02 ± 1.9
[2], 95.91 K | – | 112.23 ± 1.9
[2], 98.73 K | – | 116.53 ± 2
[2], 101.49 K | – | 119.06 ± 2
[2], 104.21 K | – | 121.47 ± 2.1
[2], 106.88 K | – | 123.99 ± 2.1
[2], 109.98 K | – | 125.77 ± 2.1
[2], 113.03 K | – | 127.49 ± 2.1
[2], 115.96 K | – | 130.48 ± 2.2
[2], 118.81 K | – | 132.67 ± 2.2
[2], 121.58 K | – | 134.84 ± 2.2
[2], 124.27 K | – | 136.76 ± 2.2
[2], 126.89 K | – | 139.36 ± 2.3
[2], 129.43 K | – | 140.97 ± 2.3
[2], 131.92 K | – | 142.97 ± 2.3
[2], 134.34 K | – | 144.92 ± 2.3
[2], 136.69 K | – | 145.99 ± 2.4
[2], 138.99 K | – | 148.53 ± 2.4
[2], 141.24 K | – | 149.98 ± 2.4
[2], 143.42 K | – | 150.47 ± 2.4
[2], 145.52 K | – | 151.98 ± 2.4
[2], 148 K | – | 155.83 ± 2.5
[2], 150.06 K | – | 156.99 ± 2.5
[2], 152.08 K | – | 157.88 ± 2.5
[2], 154.08 K | – | 159.38 ± 2.5
[2], 156.06 K | – | 160.61 ± 2.5
[2], 158.01 K | – | 161.82 ± 2.5
[2], 159.95 K | – | 162.55 ± 2.6
[2], 161.87 K | – | 163.14 ± 2.6
[2], 163.77 K | – | 164.64 ± 2.6
[2], 165.79 K | – | 164.91 ± 2.6
[2], 168.47 K | – | 166.4 ± 2.6
[2], 171.41 K | – | 166.83 ± 2.6
[2], 174.32 K | – | 167.9 ± 2.6
[2], 177.21 K | – | 169.06 ± 2.6
[2], 180.03 K | – | 169.58 ± 2.6
[2], 182.8 K | – | 171.5 ± 2.7
[2], 185.57 K | – | 172.7 ± 2.7
[2], 188.3 K | – | 174.64 ± 2.7
[2], 191 K | – | 176.3 ± 2.7
[2], 193.71 K | – | 178.38 ± 2.7
[2], 196.39 K | – | 179.3 ± 2.8
[2], 199.05 K | – | 180.41 ± 2.8
[2], 201.7 K | – | 181.59 ± 2.8
[2], 204.31 K | – | 182.99 ± 2.8
[2], 206.91 K | – | 184.79 ± 2.8
[2], 209.47 K | – | 186.12 ± 2.8
[2], 212.08 K | – | 187.01 ± 2.8
[2], 214.76 K | – | 189.97 ± 2.9
[2], 217.47 K | – | 191.2 ± 2.9
[2], 220.2 K | – | 192.68 ± 2.9
[2], 222.95 K | – | 194.21 ± 2.9
[2], 226.26 K | – | 195.06 ± 2.9
[2], 230.04 K | – | 197.34 ± 3
[2], 233.76 K | – | 198.99 ± 3
[2], 237.43 K | – | 200.1 ± 3
[2], 241.09 K | – | 202.07 ± 3
[2], 244.7 K | – | 202.6 ± 3
[2], 248.28 K | – | 203.14 ± 3
[2], 251.82 K | – | 203.17 ± 3
[2], 255.32 K | – | 204.06 ± 3.1
[2], 258.78 K | – | 205.75 ± 3.1
[2], 259.39 K | – | 207.72 ± 3.1
[2], 262.25 K | – | 207.77 ± 3.1
[2], 265.07 K | – | 209.13 ± 3.1
[2], 267.83 K | – | 210.94 ± 3.1
[2], 270.58 K | – | 212.28 ± 3.2
[2], 273.31 K | – | 213.56 ± 3.2
[2], 276.04 K | – | 215.35 ± 3.2
[2], 278.76 K | – | 217.05 ± 3.2
[2], 281.49 K | – | 217.99 ± 3.2
[2], 284.22 K | – | 220.07 ± 3.2
[2], 286.92 K | – | 223.22 ± 3.3
[2], 289.58 K | – | 223.75 ± 3.3
[2], 292.23 K | – | 225.69 ± 3.3
[2], 294.87 K | – | 226.47 ± 3.3
[2], 297.52 K | – | 227.12 ± 3.3
[2], 300.14 K | – | 227.17 ± 3.3
[2], 302.75 K | – | 228.98 ± 3.4
[2], 305.33 K | – | 230.29 ± 3.4
[2], 307.91 K | – | 230.71 ± 3.4
[2], 310.51 K | – | 233.27 ± 3.4
[2], 313.09 K | – | 234.23 ± 3.4
[2], 315.65 K | – | 234.61 ± 3.4
[2], 318.19 K | – | 235.23 ± 3.4
[2], 320.86 K | – | 237.37 ± 3.5
[2], 323.42 K | – | 238.29 ± 3.5
[2], 325.99 K | – | 238.92 ± 3.5
[2], 328.63 K | – | 240.12 ± 3.5
[2], 331.31 K | – | 243.07 ± 3.5
[2], 333.96 K | – | 245.08 ± 3.5
[2], 336.61 K | – | 246.31 ± 3.6
[2], 339.22 K | – | 248.21 ± 3.6
[2], 341.76 K | – | 249.29 ± 3.6
[2], 344.27 K | – | 251.55 ± 3.6
[2], 346.83 K | – | 253.2 ± 3.6
[2], 349.18 K | – | 254.04 ± 3.7
[2], 351.69 K | – | 255.21 ± 3.7
[2], 354.36 K | – | 256.94 ± 3.7
[2], 357.01 K | – | 258.67 ± 3.7
[2], 359.66 K | – | 260.51 ± 3.7
[2], 362.27 K | – | 261.86 ± 3.7
[2], 364.86 K | – | 262.9 ± 3.8
[2], 367.44 K | – | 264.99 ± 3.8
[2], 369.95 K | – | 266.24 ± 3.8
[2], 372.45 K | – | 266.46 ± 3.8
[2], 374.91 K | – | 267.26 ± 3.8
[2], 377.39 K | – | 269.44 ± 3.8
[2], 379.84 K | – | 270.33 ± 3.8
[2], 382.28 K | – | 271.84 ± 3.9
[2], 384.69 K | – | 272.71 ± 3.9
[2], 387.08 K | – | 274.88 ± 3.9
